Experimental data published in PubChem BioAssay (NCI).
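In this assay, cells in 96-well plates receive the compound at five concentrations for 48 hours. Endpoints are linearly interpolated between the surrounding concentrations. GI50: concentration for 50% inhibition of growth. TGI: total growth inhibition.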

Columns and labels:
Assay in all cases: inhibition of tumour cell growth, NCI panel, 48 h
ACHN renal = system: ACHN renal
HCT-116 colon = system: HCT-116 colon
HOP-62 NSCLC = system: HOP-62 NSCLC
M14 melanoma = system: M14 melanoma
MDA-MB-435 = system: MDA-MB-435
NCI-H226 lung = system: NCI-H226 lung
NCI-H23 lung = system: NCI-H23 lung
OVCAR-3 ovarian = system: OVCAR-3 ovarian
OVCAR-5 ovarian = system: OVCAR-5 ovarian
SK-MEL-5 melanoma = system: SK-MEL-5 melanoma

| SMILES | TGI (ACHN renal) | TGI (HCT-116 colon) | TGI (HOP-62 NSCLC) | TGI (M14 melanoma) | TGI (MDA-MB-435) | TGI (NCI-H226 lung) | TGI (NCI-H23 lung) | TGI (OVCAR-3 ovarian) | TGI (OVCAR-5 ovarian) | TGI (SK-MEL-5 melanoma) | GI50 (ACHN renal) | GI50 (HCT-116 colon) | GI50 (HOP-62 NSCLC) | GI50 (M14 melanoma) | GI50 (MDA-MB-435) | GI50 (NCI-H226 lung) | GI50 (NCI-H23 lung) | GI50 (OVCAR-3 ovarian) | GI50 (OVCAR-5 ovarian) | GI50 (SK-MEL-5 melanoma) |
| --- | --- | --- | --- | --- | --- | --- | --- | --- | --- | --- | --- | --- | --- | --- | --- | --- | --- | --- | --- | --- |
| [N-]=[N+]=Nc1cc(=O)n2c3c(cccc13)CCC2 | > 100 µM | > 100 µM | > 100 µM | > 100 µM | > 100 µM | > 100 µM | > 100 µM | > 100 µM |  |  |  |  |  |  |  |  |  |  |  |  |
| CC(C)C(=O)Nc1nc2c(ncn2C2OC(CO)C(O)C2O)c(=O)[nH]1 (configuration not stated) | > 100 µM | > 100 µM | > 100 µM | > 100 µM |  | > 100 µM | > 100 µM | > 100 µM | > 100 µM | > 100 µM |  |  |  |  |  |  |  |  |  |  |
| CN[C@@H](C)[C@@H](NC)c1ccccc1 | > 100 µM | > 100 µM |  | > 100 µM |  | > 100 µM | > 100 µM | > 100 µM |  | > 100 µM |  |  |  |  |  |  |  |  |  |  |
| CCCO/S(=N\S(=O)(=O)c1ccccc1)c1ccccc1[N+](=O)[O-] (configuration not stated) | > 100 µM | > 100 µM | > 100 µM | > 100 µM |  | > 100 µM | > 100 µM | > 100 µM | > 100 µM | > 100 µM |  |  |  |  |  |  |  |  |  |  |
| c1ccc2c(c1)c1c(c3ccccc32)CN2CCCC2C1 (configuration not stated) | 9.35 µM | 14.7 µM | > 31.9 µM | 15.8 µM | 31.6 µM |  | 10.3 µM | 22.9 µM | > 43.4 µM | 11.2 µM |  |  |  |  |  |  |  |  |  |  |
| O=[N+]([O-])c1ccc(N2N=C(c3ccc(NCc4nc5ccccc5[nH]4)cc3)CC2c2ccco2)cc1 (configuration not stated) | > 100 µM | 57.3 µM | > 100 µM | 61.3 µM |  |  | 55.9 µM | 80.2 µM | > 100 µM | 31.9 µM |  |  |  |  |  |  |  |  |  |  |
| C1=C\COCc2cc(ccc2OCCN2CCCC2)Nc2nccc(n2)-c2cccc(c2)COC/1 | 4.8 µM | 4.07 µM | 6.56 µM | 4.72 µM | 4.65 µM | 5.09 µM | 5.79 µM | 5.57 µM | 5.38 µM |  | 1.12 µM | 1.03 µM | 2.47 µM | 1.75 µM | 1.53 µM | 3.19 µM | 2.09 µM | 2.01 µM | 1.16 µM |  |
| O=S(=O)(c1ccccc1)C1CN2OC1(S(=O)(=O)c1ccccc1)CC2c1ccc(Br)cc1 (configuration not stated) | > 100 µM | > 100 µM | > 100 µM | > 100 µM |  | > 100 µM | > 100 µM | > 100 µM | > 100 µM | > 100 µM |  |  |  |  |  |  |  |  |  |  |
| COc1cc(C=O)c(-c2cc(OC)c(OC)cc2C=O)cc1OC | > 100 µM | > 100 µM | > 100 µM | > 100 µM |  | > 100 µM | > 100 µM | > 100 µM | > 100 µM | > 100 µM |  |  |  |  |  |  |  |  |  |  |
| O=C1NC(=O)C(c2cccc([N+](=O)[O-])c2)=C1Nc1cc(Cl)c(O)c(Cl)c1 | > 25 µM | > 25 µM | > 25 µM | > 25 µM | > 25 µM |  |  | > 25 µM | > 25 µM | > 25 µM | > 25 µM | > 25 µM | > 25 µM | > 25 µM | > 25 µM |  |  | > 17.9 µM | > 25 µM | 24.4 µM |
